Measured values: paper PMC5834492, “Antimycobacterial drug discovery using Mycobacteria-infected amoebae identifies anti-infectives and new molecular targets” (Scientific Reports, 2018)
Like-named read-outs stand apart in the source and are kept apart here.

Legend:
Mtb H37Rv in THP-1 = system: Mtb H37Rv in THP-1; parameters: method as in Sorrentino et al, 2015; conditions: ref Sorrentino et al, 2015, cited from earlier work; for Extracellular MIC90/ Inracellular MIC90: ratio
D. discoideum GFP-ABD = conditions: 10 µM
[1] = system: M. marinum in A. castellanii; format: cell-based, Mycobacterium marinum; conditions: 10 µM
Mtb H37Rv = system: Mtb H37Rv; parameters: method as in Sorrentino et al, 2015; conditions: ref Sorrentino et al, 2015; cited from earlier work
M. marinum luxCDABE = format: cell-based, Mycobacterium marinum; conditions: 10 µM
M. marinum GFP = format: cell-based, Mycobacterium marinum; conditions: for M. marinum GFP normalised growth, control=1.00, mean: 10 µM, antibiotic assay
[2] = system: M. marinum in BV2 microglial cells; format: cell-based, Mycobacterium marinum; conditions: for BV2 / M. marinum normalised growth, control=1.00, mean / hit in BV2/M. marinum assay True/False: 10 µM
[3] = THP1 / Mtb H37Rv infection assay

Row | Compound | Intracelullar MIC90 in THP-1 (Mtb H37Rv in THP-1; Mtb H37Rv-infected THP1 cells) | Intracelullar MIC90 in THP-1 (Mtb H37Rv in THP-1; [3]) | Extracellular MIC90/ Inracellular MIC90 (Mtb H37Rv in THP-1) | D. discoideum GFP-ABD normalised growth, control=1.00, mean (D. discoideum GFP-ABD) | A. castellanii / M. marinum normalised growth, control=1.00, mean [1] | Hits A. castellanii/M. marinum assay True/False [1] | Extracellular MIC90 (Mtb H37Rv) | M. marinum luxCDABE normalised growth, control=1.00, mean (M. marinum luxCDABE) | M. marinum GFP normalised growth, control=1.00, mean (M. marinum GFP) | IC50 [2] | BV2 / M. marinum normalised growth, control=1.00, mean [2] | hit in BV2/M. marinum assay True/False [2] | M. marinum luxCDABE normalised growth, control = 1.00, mean (M. marinum luxCDABE) | D. discoideum GFP-ABD normalised growth, control = 1.00, mean (D. discoideum GFP-ABD) | A. castellanii/M. marinum normalised growth, control = 1.00, mean [1] | antibiotic activity in M. marinum growth assay (M. marinum GFP; broth)
1 | Nc1nc(N)c2c(Sc3ccc4ccccc4c3)cccc2n1 [GW369335X] | 5.55 µM | 5.55 µM | 1.57 | 0.97 | 0.37 | TRUE | 8.7 µM | 0.20 | 0.14 | 4.87 µM | 0.71 | FALSE | – | – | – | –
2 | COc1ccc(Nc2ccccc2NC(=O)c2ccc(O)nc2)cc1 [GSK1051703A] | – | 5.55 µM | 1.28 | 1.00 | 1.00 | – | 7.1 µM | 1.00 | 0.84 | 6.47 µM | 0.65 | – | – | – | – | –
3 | Cc1ccc(C(=O)Nc2nc(-c3ccccn3)cs2)s1 [GSK1372568A] | – | 50 µM | 0.17 | 0.31 | 1.35 | – | 8.4 µM | 0.00 | 0.69 | 5.33 µM | 0.95 | – | – | – | – | –
4 | Br.CC(C)(C)c1ccccc1OCCCON1C(=N)N=C(N)NC1(C)C [BRL-7940SA] | – | 1.85 µM | 1.24 | 0.67 | 2.62 | – | 2.3 µM | 0.00 | 0.04 | 3.14 µM | 0.53 | – | – | – | – | –
5 | N=C(Nc1nc(-c2ccccn2)cc2ccccc12)c1cccc(Cl)c1 [GSK381407A] | – | 0.61 µM | 7.38 | 0.98 | 1.06 | – | 4.5 µM | 0.00 | 7.92e-5 | 7.71 µM | 0.65 | – | – | – | – | –
6 | Cc1ccc2nc(C)c(C(=O)NCC(C)C)n2c1 [GSK1829816A] | – | 16.65 µM | 0.46 | 1.03 | 1.01 | – | 7.7 µM | 0.08 | 0.20 | 4.09 µM | 0.61 | – | – | – | – | –
7 | Cc1occc1C(=O)Nc1nc(-c2ccccn2)nc2ccsc12 [GSK237561A] | – | 1.85 µM | 2.16 | -0.0741 | 1.57 | – | 4 µM | 0.00 | 0.31 | 3.9 µM | 0.73 | – | – | – | – | –
8 | Cc1nnc(NCc2cccc(Cl)c2)c2ccccc12 [GSK1302651A] | – | 5.55 µM | 1.06 | 0.97 | 1.01 | – | 5.9 µM | 0.00 | 0.56 | 4.41 µM | 0.87 | – | – | – | – | –
9 | COc1cc2ccccc2cc1C(=O)NCc1cccc(-c2ccccc2OC)c1 [GSK695914A] | 5.55 µM | 5.55 µM | 0.4 | 0.98 | 0.63 | FALSE | 2.2 µM | 0.00 | 0.0549 | 7.82 µM | 0.48 | TRUE | 0,00 | – | – | –
10 | O=C(c1cc2ccccc2o1)N1CCN(Cc2ccc3c(c2)OCO3)CC1 [GSK861337A] | – | 5.55 µM | 0.49 | 0.31 | 0.70 | – | 2.7 µM | 0.00 | 0.10 | 9.31 µM | 0.77 | – | – | – | – | –
11 | CNc1nc(SCC(=O)N(C)Cc2ccc(Cl)s2)nc2ccccc12 [GSK1925843A] | 16.65 µM | 16.65 µM | 0.34 | 1.10 | 1.12 | FALSE | 5.6 µM | 0.00 | 0.70 | 3.83 µM | 0.43 | TRUE | 0,00 | 1,10 | 1,12 | –
12 | COc1ccc2nc(C)cc(OCC(=O)Nc3cc(C)cc(C)c3)c2c1 [GSK749336A] | – | 5.55 µM | 0.05 | 0.67 | 0.58 | – | 0.3 µM | 0.00 | 0.14 | 7.32 µM | 0.63 | – | – | – | – | –
13 | Cc1nc2ccccn2c1C(=O)NCc1cccs1 [GSK892651A] | – | 5.55 µM | 1.62 | 0.83 | 0.65 | – | 9 µM | 0.00 | 0.12 | 4.41 µM | 0.60 | – | – | – | – | –
14 | COc1ccc(-c2nc(-c3cccc(NC(=O)Cc4ccc(F)cc4)c3)no2)cc1OC [GSK2043267A] | – | 0.21 µM | 17.62 | 1.18 | 0.86 | – | 3.7 µM | 0.00 | 0.97 | 6.69 µM | 0.77 | – | – | – | – | strong antibiotic activity
